Reference: ChEMBL document CHEMBL4483862, “Open-source discovery of chemical leads for next-generation chemoprotective antimalarials” (2018)

Tested on: Plasmodium berghei
Test: Luciferase/luciferin-expressing antifolate-resistant parasites were used to infect a culture of HepG2 cells that were pre-incubated with compounds. Infected hepatocytes emit light due to the luciferase reaction. Assay results are presented as the percent inhibition of light emission compared to control. […]
Format: functional
Settings: sporozoite; for IC90: read-out: LUCIFERASE INFECTION ASSAY - IC90
[1] = read-out: LUCIFERASE INFECTION ASSAY - IC50

| SMILES | IC90 [µM] | other results |
| --- | --- | --- |
| CC(=O)c1cccc(-c2cnc3ccc(Cc4ccccc4)nn23)c1 | 8.78 | IC50 (HEPG2TOX_HILL_SLOPE 1.13, HEPG2TOX_R_SQUARED 0.363, PBLUC_HILL_SLOPE 4.01, PBLUC_R_SQUARED 0.469, read-out: LUCIFERASE INFECTION ASSAY - IC50): 5.08 µM |
| CS(=O)(=O)c1ccc(-c2cnc3c(NC=O)cc(-c4ccsc4)cn23)cc1 | 4.59 | IC50 (PBLUC_HILL_SLOPE 3.07, PBLUC_R_SQUARED 0.32, read-out: LUCIFERASE INFECTION ASSAY - IC50): 2.24 µM |
| CNC(=O)c1ccc(CN(C2CC2)S(=O)(=O)c2cc([N+](=O)[O-])cc(C)c2C)cc1 | > 10 | IC50 (FFLUC_HILL_SLOPE 3.59, FFLUC_R_SQUARED 0.192, PBLUC_HILL_SLOPE 1.6, PBLUC_R_SQUARED 0.527, read-out: LUCIFERASE INFECTION ASSAY - IC50): 5.04 µM |
| O=C(O)C(CCO)Sc1nnc(Nc2ccc(Oc3ccccc3)cc2)s1 (stereo not given) | > 10 | IC50 (HEPG2TOX_HILL_SLOPE 1.82, HEPG2TOX_R_SQUARED 0.816, PBLUC_HILL_SLOPE 10.1, PBLUC_R_SQUARED 0.331, read-out: LUCIFERASE INFECTION ASSAY - IC50): 9.1 µM |
| O=C(NNC(=O)c1ccccc1OCC1CCCO1)c1cc2ccccc2cc1O (stereo not given) | 4.01 | IC50 (HEPG2TOX_HILL_SLOPE 0.895, HEPG2TOX_R_SQUARED 0.962, PBLUC_HILL_SLOPE 14.5, PBLUC_R_SQUARED 0.545, read-out: LUCIFERASE INFECTION ASSAY - IC50): 3.45 µM |
| COc1ccccc1CNC(=O)N/C=C/c1ccccc1Cl | > 10.4 | IC50 (PBLUC_HILL_SLOPE 1.23, PBLUC_R_SQUARED 0.697, read-out: LUCIFERASE INFECTION ASSAY - IC50): 5.38 µM |
| O=C(Nc1nnc(C(F)(F)F)s1)c1ccc(F)c(Cl)c1 | 4.03 | IC50 (HEPG2TOX_HILL_SLOPE 1.54, HEPG2TOX_R_SQUARED 0.943, PBLUC_HILL_SLOPE 14.8, PBLUC_R_SQUARED 0.531, read-out: LUCIFERASE INFECTION ASSAY - IC50): 3.48 µM |
| Cn1c(N)c(C(=O)COC(=O)C2(c3ccc(Cl)cc3)CCCC2)c(=O)n(C)c1=O | 6.91 | IC50 (PBLUC_HILL_SLOPE 2.17, PBLUC_R_SQUARED 0.685, read-out: LUCIFERASE INFECTION ASSAY - IC50): 2.5 µM |
| CN(C)CCNc1cc(-c2cccs2)nc2ccccc12 | 4.22 | IC50 (HEPG2TOX_HILL_SLOPE 9.05, HEPG2TOX_R_SQUARED 0.795, PBLUC_HILL_SLOPE 12.9, PBLUC_R_SQUARED 0.598, read-out: LUCIFERASE INFECTION ASSAY - IC50): 3.56 µM |
| CN1/C(=C\C(=O)COC(=O)c2cc3ccccc3cc2O)C(C)(C)c2ccccc21 | > 10 | IC50 [1]: > 10 µM |
| CC/N=c1\scc(-c2ccc(Cl)cc2)n1/N=C/c1ccc[nH]1 | 0.416 | IC50 (PBLUC_HILL_SLOPE 20.7, PBLUC_R_SQUARED 0.413, read-out: LUCIFERASE INFECTION ASSAY - IC50): 0.374 µM |
| COC(=O)c1ccccc1SCC(C)=O | > 14.7 | IC50 (FFLUC_HILL_SLOPE 5.95, FFLUC_R_SQUARED 0.0707, PBLUC_HILL_SLOPE 4.71, PBLUC_R_SQUARED 0.0859, read-out: LUCIFERASE INFECTION ASSAY - IC50): 14 µM |
| Cc1nnc(SCc2cc(=O)n3nc(C)c(-c4ccc(F)cc4)c3[nH]2)s1 | > 8.52 | IC50 (PBLUC_HILL_SLOPE 8.42, PBLUC_R_SQUARED 0.168, read-out: LUCIFERASE INFECTION ASSAY - IC50): 7.52 µM |
| O=C(/C(Br)=C/c1ccc([N+](=O)[O-])cc1)c1ccccc1 | > 10 | IC50 (HEPG2TOX_HILL_SLOPE 17, HEPG2TOX_R_SQUARED 0.837, PBLUC_HILL_SLOPE 13.5, PBLUC_R_SQUARED 0.0643, read-out: LUCIFERASE INFECTION ASSAY - IC50): 9.16 µM |
| Cc1cc(C(C)(C)C)cc(C)c1CCNC(=O)C1CC1C (stereo not given) | 9.15 | IC50 (HEPG2TOX_HILL_SLOPE 11.1, HEPG2TOX_R_SQUARED 0.0296, PBLUC_HILL_SLOPE 3.7, PBLUC_R_SQUARED 0.553, read-out: LUCIFERASE INFECTION ASSAY - IC50): 5.05 µM |
| CNc1snc(C)c1C(=O)NC(C)c1ccc(OC(F)F)cc1 (stereo not given) | 9.96 | IC50 [1]: 8.84 µM |
| CCSc1ccccc1C(=O)Nc1ccc(C(=O)OC)cc1 | > 10.5 | IC50 [1]: > 10.5 µM |
| Cc1cc(C(C)(C)C)cc(C(C)(C)C)[s+]1 | 7.78 | IC50 (HEPG2TOX_HILL_SLOPE 3.48, HEPG2TOX_R_SQUARED 0.99, PBLUC_HILL_SLOPE 2.71, PBLUC_R_SQUARED 0.511, read-out: LUCIFERASE INFECTION ASSAY - IC50): 3.46 µM |
| CSc1sc(Cl)c(-c2ccc(Cl)cc2)c1C#N | > 11 | IC50 [1]: > 11 µM |
| CN(Cc1c(F)cccc1Cl)C(=O)COc1ccc2[nH]c3ccccc3c(=O)c2c1 | 1.11 | IC50 (PBLUC_HILL_SLOPE 2.98, PBLUC_R_SQUARED 0.795, read-out: LUCIFERASE INFECTION ASSAY - IC50): 0.53 µM |

| SMILES | IC90 [µM] | other results |
| --- | --- | --- |
| O=C1COc2ccc(-c3cs/c(=N\CCc4ccccc4)n3/N=C/c3ccc4ncccc4c3)cc2N1 | > 10 | IC50 (FFLUC_HILL_SLOPE 3.55, FFLUC_R_SQUARED 0.719, HEPG2TOX_HILL_SLOPE 3.57, HEPG2TOX_R_SQUARED 0.945, read-out: LUCIFERASE INFECTION ASSAY - IC50): > 10 µM |
| CCCc1ccc(C(=O)C(C)Sc2nnc(Cc3cccc4ccccc34)n2N)cc1 (stereo not given) | > 10 | IC50 (FFLUC_HILL_SLOPE 1.29, FFLUC_R_SQUARED 0.471, read-out: LUCIFERASE INFECTION ASSAY - IC50): > 10 µM |
| Cc1c(C)c(C)c(CSC2=NCCCN2C2CCCCC2)c(C)c1C | > 8.35 | IC50 [1]: > 8.35 µM |
| Cc1c(-c2ccccc2)oc2c(C(=O)N(Cc3ccccc3Cl)S(=O)(=O)c3cccc(C(F)(F)F)c3)cccc2c1=O | > 10 | IC50 (HEPG2TOX_HILL_SLOPE 8.04, HEPG2TOX_R_SQUARED 0.64, PBLUC_HILL_SLOPE 8.59, PBLUC_R_SQUARED 0.6, read-out: LUCIFERASE INFECTION ASSAY - IC50): 7.82 µM |
| CN(C)CCNc1nc2sc3c(c2c(=O)n1Cc1ccco1)CCCCC3 | 8.43 | IC50 (PBLUC_HILL_SLOPE 3.33, PBLUC_R_SQUARED 0.165, read-out: LUCIFERASE INFECTION ASSAY - IC50): 4.36 µM |
| Nc1ncc(-c2cc(C(F)(F)F)cc(C(F)(F)F)c2)cc1-c1cncc2ccccc12 | > 7.62 | IC50 [1]: > 7.62 µM |
| COc1cc(Nc2ncc3c(n2)CCN(C(=O)Nc2ccc(OC(F)(F)F)cc2)C3)cc(OC)c1OC | > 6.35 | IC50 (HEPG2TOX_HILL_SLOPE 2.89, HEPG2TOX_R_SQUARED 0.596, read-out: LUCIFERASE INFECTION ASSAY - IC50): > 6.35 µM |
| FC(F)(F)c1ccnc(N2CCN(c3ncnc4scc(-c5ccccc5)c34)CC2)n1 | > 7.46 | IC50 [1]: > 7.46 µM |
| O=C(Nc1ccc(Cl)cc1)O/N=C\c1ccc(C#Cc2ccccc2)cc1 | > 8.8 | IC50 [1]: > 8.8 µM |
| O=C(/C=C/c1cn(-c2ccccc2)nc1-c1ccncc1)c1cccc(N2CCCC2=O)c1 | > 10 | IC50 (HEPG2TOX_HILL_SLOPE 7.23, HEPG2TOX_R_SQUARED 0.576, PBLUC_HILL_SLOPE 3.48, PBLUC_R_SQUARED 0.189, read-out: LUCIFERASE INFECTION ASSAY - IC50): 9.57 µM |
| CC(=O)c1cccc(-c2cnc3cnc(-c4cccs4)cn23)c1 | 8.52 | IC50 (HEPG2TOX_HILL_SLOPE 0.197, HEPG2TOX_R_SQUARED 0.442, PBLUC_HILL_SLOPE 3.75, PBLUC_R_SQUARED 0.777, read-out: LUCIFERASE INFECTION ASSAY - IC50): 4.74 µM |
| CCN1N=C(c2ccc(OC)cc2)c2ccc(OC)c3cccc1c23 | 8.69 | IC50 (FFLUC_HILL_SLOPE 16.1, FFLUC_R_SQUARED 0.71, HEPG2TOX_HILL_SLOPE 5.83, HEPG2TOX_R_SQUARED 0.386, PBLUC_HILL_SLOPE 3.16, PBLUC_R_SQUARED 0.408, read-out: LUCIFERASE INFECTION ASSAY - IC50): 4.33 µM |
| Fc1cccc(-c2cnc3cnc(-c4ccncc4)cn23)c1 | > 11.4 | IC50 (HEPG2TOX_HILL_SLOPE 3.65, HEPG2TOX_R_SQUARED 0.679, PBLUC_HILL_SLOPE 2.42, PBLUC_R_SQUARED 0.708, read-out: LUCIFERASE INFECTION ASSAY - IC50): 5.64 µM |
| Cc1cc(NNC(=O)c2ccccc2Cl)nc2c1c(-c1cccs1)nn2C | > 8.29 | IC50 [1]: > 8.29 µM |
| Cc1cnc(NC(=O)c2ccc(CN3CCCCC3)cc2)s1 | > 10 | IC50 (FFLUC_HILL_SLOPE 0.622, FFLUC_R_SQUARED 0.84, HEPG2TOX_HILL_SLOPE 8.37, HEPG2TOX_R_SQUARED 0.336, PBLUC_HILL_SLOPE 1, PBLUC_R_SQUARED 0.657, read-out: LUCIFERASE INFECTION ASSAY - IC50): 1.28 µM |
| COc1ccc(OC)c(CCNc2nc3cnc(-c4cccc(Oc5ccccc5)c4)cc3n2C)c1 | 1.51 | IC50 [1]: 0.52 µM |
| CN(C)c1ccc(Nc2nc(=O)cn[nH]2)cc1 | > 14.3 | IC50 (PBLUC_HILL_SLOPE 0.727, PBLUC_R_SQUARED 0.391, read-out: LUCIFERASE INFECTION ASSAY - IC50): > 14.3 µM |
| CCNC(=O)c1cc2c(s1)CCC(C(C)(C)C)C2 (stereo not given) | > 10 | IC50 (PBLUC_HILL_SLOPE 3.05, PBLUC_R_SQUARED 0.267, read-out: LUCIFERASE INFECTION ASSAY - IC50): 6.74 µM |
| N#C/C(=C\c1ccc(O)cc1)c1nc(C(c2ccccc2)c2ccccc2)no1 | > 10 | IC50 (FFLUC_HILL_SLOPE 12.8, FFLUC_R_SQUARED 0.5, read-out: LUCIFERASE INFECTION ASSAY - IC50): > 10 µM |
| CC(C)NC(=O)c1csc(C(O)c2ccc(C(C)(C)C)cc2)n1 (stereo not given) | 8.8 | IC50 (HEPG2TOX_HILL_SLOPE 1.76, HEPG2TOX_R_SQUARED 0.8, PBLUC_HILL_SLOPE 2.52, PBLUC_R_SQUARED 0.456, read-out: LUCIFERASE INFECTION ASSAY - IC50): 3.68 µM |
